Where two headings read alike, the source gives them in different places.
How the values were obtained:
[1] = biological target: T1, FYN [isoform a] (Homo sapiens, UniProt P06241); assay: Kinase panel profiling at 1 µmol/L (mobility shift assay, Carna); format: biochemical; details: 1 µmol/L of BTK inhibitor
T1 construct: purchased Carna Biosciences

[2] = biological target: T2, CK1δ (Homo sapiens, UniProt P48730); assay: as above; format: biochemical; details: 1 µmol/L of BTK inhibitor
T2 construct: purchased Carna Biosciences
T2 sequence (P48730 whole entry): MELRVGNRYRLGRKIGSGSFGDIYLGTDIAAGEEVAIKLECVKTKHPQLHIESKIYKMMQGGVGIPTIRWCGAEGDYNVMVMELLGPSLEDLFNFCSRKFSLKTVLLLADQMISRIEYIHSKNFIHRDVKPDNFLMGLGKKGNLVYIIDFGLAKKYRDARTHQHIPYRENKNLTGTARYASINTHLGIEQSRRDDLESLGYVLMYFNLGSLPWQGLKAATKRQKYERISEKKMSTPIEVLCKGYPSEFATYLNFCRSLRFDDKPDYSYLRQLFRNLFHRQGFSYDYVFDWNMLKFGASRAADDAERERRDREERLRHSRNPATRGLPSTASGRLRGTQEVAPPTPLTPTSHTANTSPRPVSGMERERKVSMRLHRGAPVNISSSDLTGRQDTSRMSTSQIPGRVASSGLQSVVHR

[3] = biological target: T3, WNK1 (Homo sapiens, UniProt Q9H4A3); assay: as above; format: biochemical; details: 1 µmol/L of BTK inhibitor
T3 construct: purchased Carna Biosciences

[4] = biological target: T4, CDK3/CycE1 (Homo sapiens, UniProt Q00526); assay: as above; format: biochemical; details: 1 µmol/L of BTK inhibitor
T4 construct: purchased Carna Biosciences
T4 sequence (Q00526 whole entry): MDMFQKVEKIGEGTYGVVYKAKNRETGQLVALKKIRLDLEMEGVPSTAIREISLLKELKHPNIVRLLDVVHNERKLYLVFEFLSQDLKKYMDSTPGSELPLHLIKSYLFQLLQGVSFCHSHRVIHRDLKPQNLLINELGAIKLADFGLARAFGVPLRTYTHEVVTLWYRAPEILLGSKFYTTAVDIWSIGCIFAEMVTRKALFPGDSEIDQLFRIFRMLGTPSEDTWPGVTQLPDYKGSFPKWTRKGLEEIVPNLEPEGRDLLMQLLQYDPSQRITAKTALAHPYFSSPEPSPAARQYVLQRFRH
T4 sequence (P24864 whole entry partner): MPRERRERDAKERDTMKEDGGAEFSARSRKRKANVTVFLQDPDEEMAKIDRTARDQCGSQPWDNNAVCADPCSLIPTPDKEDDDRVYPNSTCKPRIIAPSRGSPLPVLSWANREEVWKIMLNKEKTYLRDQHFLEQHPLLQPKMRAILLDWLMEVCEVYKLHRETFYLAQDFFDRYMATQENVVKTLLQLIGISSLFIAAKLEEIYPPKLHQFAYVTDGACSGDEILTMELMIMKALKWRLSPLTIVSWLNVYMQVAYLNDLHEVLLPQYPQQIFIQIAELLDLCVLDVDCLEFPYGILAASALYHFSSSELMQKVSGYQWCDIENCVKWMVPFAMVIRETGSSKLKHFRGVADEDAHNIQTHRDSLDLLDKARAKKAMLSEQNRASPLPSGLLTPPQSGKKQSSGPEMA

[5] = biological target: T5, INSR (Homo sapiens, UniProt P06213); assay: as above; format: biochemical; details: 1 µmol/L of BTK inhibitor
T5 construct: purchased Carna Biosciences
T5 sequence (P06213 28-1382): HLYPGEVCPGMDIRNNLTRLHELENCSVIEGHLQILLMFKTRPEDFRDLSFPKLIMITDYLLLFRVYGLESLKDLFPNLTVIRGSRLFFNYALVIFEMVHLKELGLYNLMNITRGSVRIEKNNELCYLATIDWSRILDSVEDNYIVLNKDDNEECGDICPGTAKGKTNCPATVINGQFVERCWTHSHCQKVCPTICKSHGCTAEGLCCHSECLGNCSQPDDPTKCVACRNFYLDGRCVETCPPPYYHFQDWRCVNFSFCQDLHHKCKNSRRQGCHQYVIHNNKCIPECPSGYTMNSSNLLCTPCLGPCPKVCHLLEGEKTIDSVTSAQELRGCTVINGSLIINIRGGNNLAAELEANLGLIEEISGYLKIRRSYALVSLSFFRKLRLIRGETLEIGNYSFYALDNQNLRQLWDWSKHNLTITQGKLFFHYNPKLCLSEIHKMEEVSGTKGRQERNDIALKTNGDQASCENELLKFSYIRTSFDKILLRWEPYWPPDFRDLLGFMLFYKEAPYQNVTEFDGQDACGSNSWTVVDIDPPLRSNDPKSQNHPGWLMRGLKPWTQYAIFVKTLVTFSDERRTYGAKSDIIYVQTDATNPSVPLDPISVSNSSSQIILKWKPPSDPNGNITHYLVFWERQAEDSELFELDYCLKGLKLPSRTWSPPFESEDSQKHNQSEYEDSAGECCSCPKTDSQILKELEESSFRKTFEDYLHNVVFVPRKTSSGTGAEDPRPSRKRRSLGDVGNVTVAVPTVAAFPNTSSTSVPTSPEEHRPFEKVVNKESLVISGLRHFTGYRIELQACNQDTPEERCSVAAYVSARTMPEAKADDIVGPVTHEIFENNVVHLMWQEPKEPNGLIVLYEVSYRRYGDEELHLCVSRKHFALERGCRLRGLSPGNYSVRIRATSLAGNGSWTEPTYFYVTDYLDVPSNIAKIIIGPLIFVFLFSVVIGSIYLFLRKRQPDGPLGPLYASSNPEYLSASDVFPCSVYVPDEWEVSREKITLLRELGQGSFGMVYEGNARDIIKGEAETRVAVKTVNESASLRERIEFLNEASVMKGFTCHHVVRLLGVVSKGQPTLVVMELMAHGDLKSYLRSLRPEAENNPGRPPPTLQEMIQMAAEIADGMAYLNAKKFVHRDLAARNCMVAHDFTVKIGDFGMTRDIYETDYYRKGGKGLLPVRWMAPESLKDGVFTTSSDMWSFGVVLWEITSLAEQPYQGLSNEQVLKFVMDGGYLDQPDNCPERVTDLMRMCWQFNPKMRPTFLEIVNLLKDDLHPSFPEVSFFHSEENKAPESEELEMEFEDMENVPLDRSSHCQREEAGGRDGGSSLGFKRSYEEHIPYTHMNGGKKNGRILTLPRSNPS

[6] = biological target: T6, EPHA7 (Homo sapiens, UniProt Q15375); assay: as above; format: biochemical; details: 1 µmol/L of BTK inhibitor
T6 construct: purchased Carna Biosciences

[7] = biological target: T7, AKT3 (Homo sapiens, UniProt Q9Y243); assay: as above; format: biochemical; details: 1 µmol/L of BTK inhibitor
T7 construct: purchased Carna Biosciences
T7 sequence (Q9Y243 whole entry): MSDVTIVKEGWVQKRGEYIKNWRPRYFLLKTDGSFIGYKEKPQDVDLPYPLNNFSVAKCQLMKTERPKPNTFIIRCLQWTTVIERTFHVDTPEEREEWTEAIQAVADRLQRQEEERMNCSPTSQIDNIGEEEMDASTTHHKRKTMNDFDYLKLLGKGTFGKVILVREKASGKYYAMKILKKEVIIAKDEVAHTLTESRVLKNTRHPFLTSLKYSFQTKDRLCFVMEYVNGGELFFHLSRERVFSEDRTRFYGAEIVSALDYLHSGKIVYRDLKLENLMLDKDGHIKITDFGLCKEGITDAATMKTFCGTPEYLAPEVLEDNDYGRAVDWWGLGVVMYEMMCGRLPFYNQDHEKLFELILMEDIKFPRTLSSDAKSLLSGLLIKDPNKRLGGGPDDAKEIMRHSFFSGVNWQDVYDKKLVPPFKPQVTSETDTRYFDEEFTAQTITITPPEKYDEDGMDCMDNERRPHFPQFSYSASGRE

[8] = biological target: T8, MARK3 (Homo sapiens, UniProt P27448); assay: as above; format: biochemical; details: 1 µmol/L of BTK inhibitor
T8 construct: purchased Carna Biosciences
T8 sequence (P27448 whole entry): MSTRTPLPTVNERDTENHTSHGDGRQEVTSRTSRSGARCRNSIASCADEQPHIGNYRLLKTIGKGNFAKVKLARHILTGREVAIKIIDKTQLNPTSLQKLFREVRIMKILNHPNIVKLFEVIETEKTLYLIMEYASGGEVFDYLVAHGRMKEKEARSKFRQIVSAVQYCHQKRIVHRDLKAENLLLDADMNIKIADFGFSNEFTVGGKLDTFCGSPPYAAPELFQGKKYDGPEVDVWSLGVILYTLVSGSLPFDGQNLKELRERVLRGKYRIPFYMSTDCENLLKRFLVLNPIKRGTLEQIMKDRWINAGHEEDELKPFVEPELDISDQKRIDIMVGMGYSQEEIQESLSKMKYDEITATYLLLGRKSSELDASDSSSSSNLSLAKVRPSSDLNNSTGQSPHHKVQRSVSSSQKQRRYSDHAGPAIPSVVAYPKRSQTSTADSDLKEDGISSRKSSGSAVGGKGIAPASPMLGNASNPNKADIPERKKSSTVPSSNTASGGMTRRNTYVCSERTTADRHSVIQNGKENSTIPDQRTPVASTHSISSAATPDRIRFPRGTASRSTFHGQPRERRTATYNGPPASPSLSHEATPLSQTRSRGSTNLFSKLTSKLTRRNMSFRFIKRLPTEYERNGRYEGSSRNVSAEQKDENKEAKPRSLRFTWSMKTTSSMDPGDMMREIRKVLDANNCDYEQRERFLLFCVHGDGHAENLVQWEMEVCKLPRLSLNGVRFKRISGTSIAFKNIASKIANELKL

[9] = biological target: T9, PBK (Homo sapiens, UniProt Q96KB5); assay: as above; format: biochemical; details: 1 µmol/L of BTK inhibitor
T9 construct: purchased Carna Biosciences
T9 sequence (Q96KB5 1-322): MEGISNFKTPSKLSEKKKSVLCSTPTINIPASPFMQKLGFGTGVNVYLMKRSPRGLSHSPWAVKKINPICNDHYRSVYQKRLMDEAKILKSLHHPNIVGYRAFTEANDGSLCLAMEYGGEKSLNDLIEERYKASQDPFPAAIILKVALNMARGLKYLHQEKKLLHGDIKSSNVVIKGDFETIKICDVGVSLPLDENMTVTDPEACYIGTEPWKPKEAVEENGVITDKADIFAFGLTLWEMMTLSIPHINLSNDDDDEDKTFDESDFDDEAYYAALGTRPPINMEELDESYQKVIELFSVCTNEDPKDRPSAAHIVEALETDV

[10] = tested on: REC-1; assay: Cell viability assay (ATPlite); format: cell-based, human; details: REC-1 cell line; for IC50: 72 hours incubation
Experimental: (§1) Intracellular ATP content was used as an indirect readout of cell number using the ATPlite 1Step bioluminescence assay (Revvity, Groningen, the Netherlands). Cells were seeded in 384-well plates at an optimized density to ensure unrestricted growth and maximal signal at the end of the experiment. After 24 hours of incubation, the starting cell number was determined by adding ATPlite to each well of a control plate and recording luminescence on an Envision multimode reader (Revvity, Waltham, MA, USA) ([4]). […] Vehicle-treated controls were included to determine maximal cell proliferation. […] After incubation for an additional 72 hours, the ATP content was measured in each well using ATPlite. The luminescent signal in inhibitor-treated wells was normalized to vehicle-treated control wells to determine the percentage viability at each concentration. Cell doublings were determined by relating the cell number of vehicle-treated controls to the starting cell number for each cell line. […] The quality of the complete assay was determined by a parallel test with doxorubicin on two cell lines. IC50 values were calculated by fitting a four-parameter logistic model to the percentage viability values using IDBS XLfit5 (IDBS, Guildford, United Kingdom). All curves were visually inspected and submitted to an F-test as implemented in IDBS XLfit5. […] When this dose range was too high in a certain cell line to allow for a reliable determination of the IC50, a new dilution series was prepared using a diluted stock solution and was used to retest the compound on the cell line.

[11] = tested on: SU-DHL-6; assay: Cell viability assay (ATPlite); format: cell-based, human; details: SU-DHL-6 cell line; for IC50: 72 hours incubation
Experimental: as §1

[12] = biological target: T10, MUSK (Homo sapiens, UniProt O15146); assay: Kinase panel profiling at 1 µmol/L (mobility shift assay, Carna); format: biochemical; details: 1 µmol/L of BTK inhibitor
T10 construct: purchased Carna Biosciences
T10 sequence (O15146 24-869): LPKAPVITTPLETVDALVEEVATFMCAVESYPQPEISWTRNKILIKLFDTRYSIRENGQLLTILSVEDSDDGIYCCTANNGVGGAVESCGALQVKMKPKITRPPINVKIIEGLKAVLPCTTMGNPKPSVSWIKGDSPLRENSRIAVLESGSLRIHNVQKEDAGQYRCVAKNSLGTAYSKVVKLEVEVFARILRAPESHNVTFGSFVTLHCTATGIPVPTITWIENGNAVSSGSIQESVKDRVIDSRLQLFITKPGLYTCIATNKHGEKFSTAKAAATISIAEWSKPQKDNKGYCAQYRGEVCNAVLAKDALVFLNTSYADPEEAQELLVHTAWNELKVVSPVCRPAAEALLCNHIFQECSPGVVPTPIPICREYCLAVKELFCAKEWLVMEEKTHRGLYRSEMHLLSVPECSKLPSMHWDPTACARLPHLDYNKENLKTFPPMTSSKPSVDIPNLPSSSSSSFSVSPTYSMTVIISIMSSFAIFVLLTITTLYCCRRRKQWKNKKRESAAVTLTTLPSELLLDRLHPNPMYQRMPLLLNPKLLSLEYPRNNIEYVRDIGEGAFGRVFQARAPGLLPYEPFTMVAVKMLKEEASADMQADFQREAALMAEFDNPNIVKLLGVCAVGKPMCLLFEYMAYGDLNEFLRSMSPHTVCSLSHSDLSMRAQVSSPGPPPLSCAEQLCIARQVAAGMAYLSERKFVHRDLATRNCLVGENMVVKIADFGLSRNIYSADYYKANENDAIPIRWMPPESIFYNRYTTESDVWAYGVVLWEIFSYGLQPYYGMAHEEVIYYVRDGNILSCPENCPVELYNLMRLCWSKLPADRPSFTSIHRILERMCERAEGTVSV

[13] = biological target: T11, KIT (Homo sapiens, UniProt P10721); assay: as above; format: biochemical; details: 1 µmol/L of BTK inhibitor
T11 construct: purchased Carna Biosciences
T11 sequence (P10721 26-976): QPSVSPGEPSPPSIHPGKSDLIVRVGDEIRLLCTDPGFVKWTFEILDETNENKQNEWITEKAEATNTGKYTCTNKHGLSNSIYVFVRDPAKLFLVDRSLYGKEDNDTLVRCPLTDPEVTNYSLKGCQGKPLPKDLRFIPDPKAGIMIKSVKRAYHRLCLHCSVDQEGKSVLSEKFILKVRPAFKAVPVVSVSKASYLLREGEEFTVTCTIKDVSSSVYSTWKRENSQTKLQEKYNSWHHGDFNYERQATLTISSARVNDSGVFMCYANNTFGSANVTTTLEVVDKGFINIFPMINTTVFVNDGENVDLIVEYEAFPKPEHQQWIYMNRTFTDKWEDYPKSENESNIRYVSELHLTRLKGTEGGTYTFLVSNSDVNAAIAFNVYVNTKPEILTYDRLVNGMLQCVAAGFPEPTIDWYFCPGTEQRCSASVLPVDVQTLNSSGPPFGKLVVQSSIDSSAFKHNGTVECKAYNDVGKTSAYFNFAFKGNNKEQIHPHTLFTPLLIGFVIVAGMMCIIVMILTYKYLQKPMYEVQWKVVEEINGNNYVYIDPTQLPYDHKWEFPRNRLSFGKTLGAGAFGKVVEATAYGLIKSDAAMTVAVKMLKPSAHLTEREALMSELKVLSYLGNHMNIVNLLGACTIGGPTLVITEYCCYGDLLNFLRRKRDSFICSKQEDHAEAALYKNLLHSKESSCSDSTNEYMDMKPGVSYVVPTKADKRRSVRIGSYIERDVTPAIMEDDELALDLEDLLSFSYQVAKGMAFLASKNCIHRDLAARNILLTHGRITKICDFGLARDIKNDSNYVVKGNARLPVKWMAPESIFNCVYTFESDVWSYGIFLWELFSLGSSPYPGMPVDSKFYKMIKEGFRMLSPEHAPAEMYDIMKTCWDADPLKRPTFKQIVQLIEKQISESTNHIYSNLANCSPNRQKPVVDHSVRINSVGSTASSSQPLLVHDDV

[14] = Homo sapiens, Rec1, read-out: IC50

SMILES | Percentage inhibition of kinase enzyme activity [1] [%] | Percentage inhibition of kinase enzyme activity [2] [%] | Percentage inhibition of kinase enzyme activity [3] [%] | Percentage inhibition of kinase enzyme activity [4] [%] | Percentage inhibition of kinase enzyme activity [5] [%] | Percentage inhibition of kinase enzyme activity [6] [%] | Percentage inhibition of kinase enzyme activity [7] [%] | Percentage inhibition of kinase enzyme activity [8] [%] | Percentage inhibition of kinase enzyme activity [9] [%] | IC50 [10, 14] [µM] | IC50 ([11]; Homo sapiens, read-out: IC50) [µM] | Percentage inhibition of kinase enzyme activity [12] [%] | Percentage inhibition of kinase enzyme activity [13] [%] | IC50 fold change of nemtabrutinib with the inhibitor [10] | IC50 fold change of nemtabrutinib with the inhibitor [11] | IC50 ([10]; Homo sapiens, Rec1, 72 h) [µM] | IC50 [10] [µM] | IC50 ([11]; Homo sapiens, SU-DHL-6, 72 h) [µM] | IC50 [11] [µM]
CC#CC(=O)N1CCC[C@H]1c1nc(-c2ccc(C(=O)Nc3ccccn3)cc2)c2c(N)nccn12 [acalabrutinib] | 5.84 | 2.76 | 5.36 | -6.14 | -4.67 | -3.54 | -4.92 | -2.57 | -15.29 | 0.021 | 0.0031 | -0.58 | 2.89 |  |  |  |  |  | 
COc1ccc(F)cc1C(=O)NCc1ccc(-c2nn([C@@H](C)C(F)(F)F)c(N)c2C(N)=O)cc1 [pirtobrutinib] | 12.27 | 6.20 | -5.02 | -4.77 | 6.62 | -9.86 | -2.20 | 5.64 | -3.79 | 0.038 | 0.013 | 1.20 | -5.95 | 53 | 43 |  |  |  | 
C=CC(=O)N1CCC[C@@H](n2nc(-c3ccc(Oc4ccccc4)cc3)c3c(N)ncnc32)C1 [ibrutinib] | 92.75 | 7.46 | 2.30 | 0.49 | 9.51 | 6.99 | -2.25 | -5.88 | -9.30 | 0.00051 | 0.012 | 1.76 | -4.53 |  |  |  |  |  | 
O=C(c1ccc(Oc2ccccc2)cc1Cl)c1c[nH]c2ncnc(N[C@@H]3CC[C@@H](CO)OC3)c12 [nemtabrutinib] |  | 25.76 | 8.78 | 7.04 | 95.91 | 94.05 | 9.45 | 10.97 | -7.49 |  |  | 100.11 | 78.81 |  |  | 2 | 2.04 | 0.6 | 0.577
C=CC(=O)N1CCC([C@@H]2CCNc3c(C(N)=O)c(-c4ccc(Oc5ccccc5)cc4)nn32)CC1 [zanubrutinib] |  |  |  |  | 2.69 | -7.84 |  |  |  |  |  | 11.33 | -2.78 |  |  | 0.0031 |  | 0.0038 | 
